The target in assay [1] is Human recombinant Acetyl-CoA Carboxylase 1 (ACC1) (Homo sapiens, UniProt Q13085). Nature of the assay: Assay Y: ACC1 inhibition, inorganic phosphate (Malachite Green). Particulars: Assay Y: room temperature, 3 hr, 15 min preincubation. It is filed as biochemical. The method, then: (§1) Preincubation of 6 μL enzyme together with 0.3 μL compound for 15 min was done before the reaction was initiated by the addition of 4 μL substrate. […] After 3 hr the reaction was stopped by addition of 60 μL of water followed by 30 μL Malachite Green solution. The Malachite Green solution was prepared by mixing 16.4 mL ammonium molybdate solution (7.5%), 1.64 mL Tween (11%) with 82 mL Malachite Green/H2SO4-solution (0.7 g Malachite Green to 1000 mL of 10% (v/v) H2SO4). Plates were left for 10 min at room temperature before reading the absorbance at 670 nm. All compounds were tested in triplicate at 10 different concentrations. Control compound (0, 50 and 100% effect) was included on each plate. […] An IC50 value was derived by non-linear regression curve fitting using the following equation: […]))) where A is the non-specific binding, B is the total binding, C is the IC50 and D is the slope. Saturation binding Kd and Bmax were derived using the equation y=((B1 max*x)/(Kd+x)).

For assay [2], the target named is Human recombinant Acetyl-CoA Carboxylase 2 (ACC2) (Homo sapiens, UniProt O00763). In words: Assay Y: ACC2 inhibition, inorganic phosphate (Malachite Green). It is filed as biochemical. Particulars: Assay Y: room temperature, 3 hr, 15 min preincubation. The method, then:
as §1

Chain of Human recombinant Acetyl-CoA Carboxylase 2 (ACC2) (O00763 whole entry): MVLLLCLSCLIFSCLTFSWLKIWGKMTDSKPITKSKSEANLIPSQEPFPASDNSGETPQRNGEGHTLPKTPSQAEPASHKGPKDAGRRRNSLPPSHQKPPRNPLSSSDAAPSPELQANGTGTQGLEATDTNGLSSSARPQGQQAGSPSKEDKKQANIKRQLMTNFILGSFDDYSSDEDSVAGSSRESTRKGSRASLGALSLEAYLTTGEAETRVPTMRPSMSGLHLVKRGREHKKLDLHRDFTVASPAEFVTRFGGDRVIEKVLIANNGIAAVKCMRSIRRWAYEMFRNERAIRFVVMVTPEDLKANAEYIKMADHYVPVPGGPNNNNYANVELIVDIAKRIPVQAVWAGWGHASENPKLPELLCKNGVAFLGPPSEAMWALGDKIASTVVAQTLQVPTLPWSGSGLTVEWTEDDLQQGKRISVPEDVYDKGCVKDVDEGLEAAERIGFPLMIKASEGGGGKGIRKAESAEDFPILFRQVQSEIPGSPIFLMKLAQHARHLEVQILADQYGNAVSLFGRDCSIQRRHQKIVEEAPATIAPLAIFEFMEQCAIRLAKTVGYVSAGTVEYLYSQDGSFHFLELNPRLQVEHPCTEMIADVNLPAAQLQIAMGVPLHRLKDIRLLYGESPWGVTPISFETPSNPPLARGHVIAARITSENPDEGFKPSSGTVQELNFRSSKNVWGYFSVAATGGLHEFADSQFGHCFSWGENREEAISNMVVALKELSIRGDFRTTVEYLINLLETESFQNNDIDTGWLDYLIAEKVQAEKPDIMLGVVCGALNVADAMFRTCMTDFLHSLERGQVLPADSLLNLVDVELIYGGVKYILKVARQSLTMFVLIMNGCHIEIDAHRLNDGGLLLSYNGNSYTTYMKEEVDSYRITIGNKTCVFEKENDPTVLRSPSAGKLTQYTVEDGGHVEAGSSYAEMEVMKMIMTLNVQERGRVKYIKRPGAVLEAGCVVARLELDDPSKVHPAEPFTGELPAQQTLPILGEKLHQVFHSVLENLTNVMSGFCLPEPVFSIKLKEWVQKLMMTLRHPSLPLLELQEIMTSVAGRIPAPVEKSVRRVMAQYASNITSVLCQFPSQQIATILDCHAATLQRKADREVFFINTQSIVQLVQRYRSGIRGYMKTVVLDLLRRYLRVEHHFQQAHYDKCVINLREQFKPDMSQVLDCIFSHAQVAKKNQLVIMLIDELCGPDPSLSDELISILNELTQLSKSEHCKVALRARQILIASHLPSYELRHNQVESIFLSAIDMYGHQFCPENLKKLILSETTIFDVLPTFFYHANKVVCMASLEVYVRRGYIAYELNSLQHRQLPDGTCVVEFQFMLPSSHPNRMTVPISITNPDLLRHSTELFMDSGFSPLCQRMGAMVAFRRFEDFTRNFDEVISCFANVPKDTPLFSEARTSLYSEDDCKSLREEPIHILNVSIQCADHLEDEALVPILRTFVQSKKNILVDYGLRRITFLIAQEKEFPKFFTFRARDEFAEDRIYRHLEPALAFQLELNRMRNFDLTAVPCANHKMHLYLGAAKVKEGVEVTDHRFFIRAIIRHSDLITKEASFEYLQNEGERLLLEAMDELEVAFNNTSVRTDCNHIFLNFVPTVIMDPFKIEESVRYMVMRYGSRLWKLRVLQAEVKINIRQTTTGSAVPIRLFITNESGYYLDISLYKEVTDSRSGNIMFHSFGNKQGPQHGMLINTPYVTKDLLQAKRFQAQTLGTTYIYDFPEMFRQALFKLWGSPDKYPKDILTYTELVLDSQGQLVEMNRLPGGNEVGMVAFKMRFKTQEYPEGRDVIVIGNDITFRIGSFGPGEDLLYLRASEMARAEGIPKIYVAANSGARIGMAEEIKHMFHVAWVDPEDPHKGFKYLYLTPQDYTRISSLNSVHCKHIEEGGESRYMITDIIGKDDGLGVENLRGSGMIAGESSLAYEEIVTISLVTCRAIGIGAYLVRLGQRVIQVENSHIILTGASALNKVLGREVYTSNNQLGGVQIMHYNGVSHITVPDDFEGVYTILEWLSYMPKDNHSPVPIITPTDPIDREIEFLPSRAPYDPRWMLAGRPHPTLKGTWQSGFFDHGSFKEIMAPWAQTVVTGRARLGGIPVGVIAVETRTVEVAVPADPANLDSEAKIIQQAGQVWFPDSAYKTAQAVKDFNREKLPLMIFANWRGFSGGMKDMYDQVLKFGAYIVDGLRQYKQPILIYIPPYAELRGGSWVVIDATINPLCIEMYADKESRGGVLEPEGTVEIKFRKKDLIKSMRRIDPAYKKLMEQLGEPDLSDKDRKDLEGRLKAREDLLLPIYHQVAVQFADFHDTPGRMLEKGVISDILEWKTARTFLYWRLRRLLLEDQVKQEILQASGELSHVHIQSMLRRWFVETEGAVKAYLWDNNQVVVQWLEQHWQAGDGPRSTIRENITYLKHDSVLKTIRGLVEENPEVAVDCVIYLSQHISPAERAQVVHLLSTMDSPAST

The IC50 is the midpoint of a concentration-inhibition curve. As for `CC(C)(C)OC(=O)NC[C@H]1CC[C@H](CNC(=O)c2cc(-c3cccc(CC(=O)O)c3)nc3ccccc23)CC1` [Example 40, [3-(4-{[(trans-4-{[(tert-Butoxycarbonyl)amino]methyl}cyclohexyl)methyl]-carbamoyl}quinolin-2-yl)phenyl]acetic Acid], the IC50 was found to be 8.64 µM in assay [1] and 1 µM in assay [2].
For `CC(C)(C)OC(=O)NC[C@H]1CC[C@H](CNC(=O)c2ccnc(-c3ccccc3)c2)CC1` [Example 41, tert-Butyl [(trans-4-{[(2-phenylisonicotinoyl)amino]methyl}cyclohexyl)methyl]-carbamate] the same measures were 6.63 µM and 4.54 µM.
For `COc1ccc(-c2cc(C(=O)NC[C@H]3CC[C@H](CNC(=O)OC(C)(C)C)CC3)ccn2)cc1` [Example 42, tert-Butyl {[trans-4-({[2-(4-methoxyphenyl)isonicotinoyl]amino}methyl)cyclo-hexyl]methyl}carbamate] the same measures were 12.8 µM and 6.14 µM.
For `Cc1cc(C(=O)NC[C@H]2CC[C@H](CNC(=O)OC(C)(C)C)CC2)cc(-c2ccccc2)n1` [Example 43, tert-Butyl [(trans-4-{[(2-methyl-6-phenylisonicotinoyl)amino]methyl}cyclohexyl)-methyl]carbamate], in that order: 8.31 µM and 5.82 µM.
`CC(C)(C)OC(=O)NC[C@H]1CC[C@H](CNC(=O)c2cncc(-c3ccccc3)c2)CC1` [Example 44, tert-Butyl {[trans-4-({[(5-phenylpyridin-3-yl)carbonyl]amino}methyl)cyclohexyl]-methyl}carbamate]: the IC50 in assay [1] stood at 13 µM; in assay [2], 9.71 µM.
For `CC(C)(C)OC(=O)NC[C@H]1CC[C@H](CNC(=O)c2ccnc(-c3cc4ccccc4s3)c2)CC1` [Example 45, tert-Butyl {[trans-4-({[2-(1-benzothiophen-2-yl)isonicotinoyl]amino}methyl)cyclo-hexyl]methyl}carbamate], the IC50 in assay [1] is greater than 20 µM; in assay [2] it was 4.35 µM.
For `CCOc1ccc(-c2cc(C(=O)NC[C@H]3CC[C@H](CNC(=O)OC(C)(C)C)CC3)ccn2)cn1` [Example 46, tert-Butyl {[trans-4-({[(6′-ethoxy-2,3′-bipyridin-4-yl)carbonyl]amino}methyl)cyclohexyl]methyl}carbamate] the same measures were greater than 20 µM and 9.53 µM.
As to `COc1ccc(-c2cc(C(=O)NC[C@H]3CC[C@H](CNC(=O)OC(C)(C)C)CC3)ccn2)c(OC)c1` [Example 47, tert-Butyl {[trans-4-({[2-(2,4-dimethoxyphenyl)isonicotinoyl]amino}methyl)cyclohexyl]methyl}carbamate], the values for the IC50 in assay [1] and in assay [2] were 14.1 µM and 9.85 µM, respectively.
For `COc1ccc(-c2cc(C(=O)NC[C@H]3CC[C@H](CNC(=O)OC(C)(C)C)CC3)ccn2)c(OC)n1` [Example 48, tert-Butyl {[trans-4-({[(2′,6′-dimethoxy-2,3′-bipyridin-4-yl)carbonyl]amino}methyl)-cyclohexyl]methyl}carbamate] the same measures were greater than 20 µM and 9.67 µM.
As for `COc1ccc(-c2cc(C(=O)NC[C@H]3CC[C@H](CNC(=O)OC(C)(C)C)CC3)ccn2)cn1` [Example 49, tert-Butyl {[trans-4-({[(6′-methoxy-2,3′-bipyridin-4-yl)carbonyl]amino}methyl)cyclohexyl]methyl}carbamate], the 50% inhibitory concentration (IC50) in assay [1] was 7.6 µM; in assay [2], 9.87 µM.
For `CC(C)(C)OC(=O)NC[C@H]1CC[C@H](CNC(=O)c2ccnc(-c3ccc(C(N)=O)cc3)c2)CC1` [Example 50, tert-Butyl {[trans-4-({[2-(4-carbamoylphenyl)isonicotinoyl]amino}methyl)cyclohexyl]-methyl}carbamate] the same measures were 5.3 µM and 6.82 µM.
As for `CC(C)(C)OC(=O)NC[C@H]1CC[C@H](CNC(=O)c2ccnc(-c3cccc(Cl)c3)c2)CC1` [Example 51, tert-Butyl {[trans-4-({[2-(3-chlorophenyl)isonicotinoyl]amino}methyl)cyclohexyl]-methyl}carbamate], the IC50 in assay [1] is greater than 20 µM; in assay [2] it was 5.67 µM.
Turning to `CC(C)(C)OC(=O)NC[C@H]1CC[C@H](CNC(=O)c2ccnc(-c3ccc(CN)cc3)c2)CC1` [Example 52, tert-Butyl ({trans-4-[({2-[4-(aminomethyl)phenyl]isonicotinoyl}amino)methyl]cyclo-hexyl}methyl)carbamate], the figures for the IC50 in assay [1] and in assay [2] were 8.23 µM and 7.66 µM, respectively.
For `CC(C)(C)OC(=O)NC[C@H]1CC[C@H](CNC(=O)c2ccnc(-c3ccc(F)c(F)c3)c2)CC1` [Example 53, tert-Butyl {[trans-4-({[2-(3,4-difluorophenyl)isonicotinoyl]amino}methyl)cyclohexyl]-methyl}carbamate] the same measures were greater than 20 µM and 9.08 µM.
For `CCOC(=O)NC[C@H]1CC[C@H](CNS(=O)(=O)c2ccc3ccccc3c2)CC1` [Example 54, Ethyl [(trans-4-{[(2-naphthylsulfonyl)amino]methyl}cyclohexyl)methyl]carbamate], in that order: greater than 20 µM and 3.99 µM.
For `CC(C)(C)COC(=O)NC[C@H]1CC[C@H](CNC(=O)c2cc(-c3ccncc3)nc3ccccc23)CC1` [Example 55, 2,2-Dimethylpropyl {[trans-4-({[(2-pyridin-4-ylquinolin-4-yl)carbonyl]amino}methyl)-cyclohexyl]methyl}carbamate], in that order: 1.3 µM and 0.28 µM.
With `O=C(NC[C@H]1CC[C@H](CNC(=O)c2cc(-c3ccncc3)nc3ccccc23)CC1)OC1CCCC1` [Example 56, Cyclopentyl {[trans-4-({[(2-pyridin-4-ylquinolin-4-yl)carbonyl]amino}methyl)cyclo-hexyl]methyl}carbamate], the results for the 50% inhibitory concentration (IC50) in assay [1] and in assay [2] were 1.21 µM and 0.4 µM, respectively.
For `CC(C)OC(=O)NC[C@H]1CC[C@H](CNC(=O)c2cc(-c3ccncc3)nc3ccccc23)CC1` [Example 57, Isopropyl {[trans-4-({[(2-pyridin-4-ylquinolin-4-yl)carbonyl]amino}methyl)cyclo-hexyl]methyl}carbamate], the IC50 in assay [1] amounted to 1.91 µM; in assay [2] it was 0.8 µM.
For `CCCOC(=O)NC[C@H]1CC[C@H](CNC(=O)c2cc(-c3ccncc3)nc3ccccc23)CC1` [Example 58, Propyl {[trans-4-({[(2-pyridin-4-ylquinolin-4-yl)carbonyl]amino}methyl)cyclohexyl]-methyl}carbamate] the same measures were 2.1 µM and 0.81 µM.
With `COCCOC(=O)NC[C@H]1CC[C@H](CNC(=O)c2cc(-c3ccncc3)nc3ccccc23)CC1` [Example 59, 2-Methoxyethyl {[trans-4-({[(2-pyridin-4-ylquinolin-4-yl)carbonyl]amino}-methyl)cyclohexyl]methyl}carbamate], the IC50 was greater than 20 µM in assay [1] and 4.67 µM in assay [2].
For `CCOC(=O)NC[C@H]1CC[C@H](CNC(=O)c2cc(-c3ccncc3)nc3ccccc23)CC1` [Example 60, Ethyl {[trans-4-({[(2-pyridin-4-ylquinolin-4-yl)carbonyl]amino}methyl)cyclo-hexyl]methyl}carbamate], in that order: 3.17 µM and 1.82 µM.
For `CCOC(=O)NC[C@H]1CC[C@H](CNC(=O)c2cc(-c3ccc(C(N)=O)cc3)nc3ccccc23)CC1` [Example 61, Ethyl ({trans-4-[({[2-(4-carbamoylphenyl)quinolin-4-yl]carbonyl}amino)methyl]-cyclohexyl}methyl)carbamate] the same measures were 1 µM and 0.55 µM.
For `CCOC(=O)NC[C@H]1CC[C@H](CNC(=O)c2cc(-c3ccccc3)nc3ccccc23)CC1` [Example 62, Ethyl {[trans-4-({[(2-phenylquinolin-4-yl)carbonyl]amino}methyl)cyclohexyl]methyl}-carbamate], in that order: 3.07 µM and 2.77 µM.
Regarding `CC(C)(C)OC(=O)NC[C@H]1CC[C@H](CNS(=O)(=O)c2cccc(-c3ccccc3)c2)CC1` [Example 63, tert-Butyl [(trans-4-{[(biphenyl-3-ylsulfonyl)amino]methyl}cyclohexyl)methyl]-carbamate], the half-inhibitory concentration (IC50) was 4.58 µM in assay [1] and 2.83 µM in assay [2].
For `CC(C)(C)OC(=O)NC[C@H]1CC[C@H](CNS(=O)(=O)c2ccc(Br)c(Br)c2)CC1` [Example 64, tert-Butyl {[trans-4-({[(3,4-dibromophenyl)sulfonyl]amino}methyl)cyclohexyl]-methyl}carbamate], in that order: greater than 20 µM and 3.72 µM.
For `CC(C)(C)OC(=O)NC[C@H]1CC[C@H](CNS(=O)(=O)c2ccc(Cl)c(Cl)c2)CC1` [Example 65, tert-Butyl {[trans-4-({[(3,4-dichlorophenyl)sulfonyl]amino}methyl)cyclohexyl]methyl}-carbamate] the same measures were greater than 20 µM and 3.88 µM.
For `CC(C)(C)OC(=O)NC[C@H]1CC[C@H](CNS(=O)(=O)c2cccc3cccnc23)CC1` [Example 66, tert-Butyl [(trans-4-{[(quinolin-8-ylsulfonyl)amino]methyl}cyclohexyl)methyl]-carbamate] the same measures were 6.79 µM and 1.39 µM.

The record behind these values is US20090306133A1, “New Acetyl Coenzyme A Carboxylase (ACC) Inhibitors And Uses In Treatments Of Obesity And Diabetes Mellitus - 087” (ASTRAZENECA AB, priority 2007, published 2009).
